Literature values in patent US9000165B2 (priority 2011, dated 2015).

How the values were obtained:
[1] = upon exposure to moisture converts into the hydrate form
[2] = test system: cholinergic muscarinic receptors
histamine H1 receptors = histamine H1 receptors (Homo sapiens, UniProt P35367)
[3] = test system: α1-adrenaline agonist receptors
[4] = target: T1, serotonin 5-HT2C receptors (Homo sapiens, UniProt P28335)
T1 sequence (P28335 33-458): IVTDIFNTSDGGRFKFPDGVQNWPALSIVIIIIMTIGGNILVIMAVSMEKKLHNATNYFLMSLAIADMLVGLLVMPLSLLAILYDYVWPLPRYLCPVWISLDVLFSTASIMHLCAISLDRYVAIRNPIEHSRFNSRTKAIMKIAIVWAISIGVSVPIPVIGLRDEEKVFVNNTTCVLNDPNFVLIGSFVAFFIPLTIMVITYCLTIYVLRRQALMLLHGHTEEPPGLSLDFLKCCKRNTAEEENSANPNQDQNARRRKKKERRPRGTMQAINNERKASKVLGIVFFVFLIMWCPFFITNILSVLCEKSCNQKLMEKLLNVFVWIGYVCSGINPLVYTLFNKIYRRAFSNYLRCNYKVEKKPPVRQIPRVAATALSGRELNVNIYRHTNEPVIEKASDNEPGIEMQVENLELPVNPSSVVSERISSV

[5] = target: T2, serotonin 5-HT1A receptors (Homo sapiens, UniProt P08908)
T2 sequence (P08908 1-422): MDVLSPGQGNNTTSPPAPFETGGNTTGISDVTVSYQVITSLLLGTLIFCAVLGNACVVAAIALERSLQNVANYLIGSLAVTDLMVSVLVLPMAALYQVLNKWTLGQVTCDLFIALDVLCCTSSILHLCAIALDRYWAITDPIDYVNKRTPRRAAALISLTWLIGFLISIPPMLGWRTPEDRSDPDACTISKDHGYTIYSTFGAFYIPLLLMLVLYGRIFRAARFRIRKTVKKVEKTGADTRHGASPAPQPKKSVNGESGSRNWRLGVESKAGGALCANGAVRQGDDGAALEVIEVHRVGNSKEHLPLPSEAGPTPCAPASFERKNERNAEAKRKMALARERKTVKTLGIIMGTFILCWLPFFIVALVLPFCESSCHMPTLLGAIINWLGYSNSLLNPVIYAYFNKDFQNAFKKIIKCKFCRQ

[6] = target: serotonin 5-HT2A receptors (Homo sapiens, UniProt P28223)
serotonin reuptake sites = serotonin reuptake sites (Homo sapiens, UniProt P31645)
Chain of serotonin reuptake sites (P31645 whole entry): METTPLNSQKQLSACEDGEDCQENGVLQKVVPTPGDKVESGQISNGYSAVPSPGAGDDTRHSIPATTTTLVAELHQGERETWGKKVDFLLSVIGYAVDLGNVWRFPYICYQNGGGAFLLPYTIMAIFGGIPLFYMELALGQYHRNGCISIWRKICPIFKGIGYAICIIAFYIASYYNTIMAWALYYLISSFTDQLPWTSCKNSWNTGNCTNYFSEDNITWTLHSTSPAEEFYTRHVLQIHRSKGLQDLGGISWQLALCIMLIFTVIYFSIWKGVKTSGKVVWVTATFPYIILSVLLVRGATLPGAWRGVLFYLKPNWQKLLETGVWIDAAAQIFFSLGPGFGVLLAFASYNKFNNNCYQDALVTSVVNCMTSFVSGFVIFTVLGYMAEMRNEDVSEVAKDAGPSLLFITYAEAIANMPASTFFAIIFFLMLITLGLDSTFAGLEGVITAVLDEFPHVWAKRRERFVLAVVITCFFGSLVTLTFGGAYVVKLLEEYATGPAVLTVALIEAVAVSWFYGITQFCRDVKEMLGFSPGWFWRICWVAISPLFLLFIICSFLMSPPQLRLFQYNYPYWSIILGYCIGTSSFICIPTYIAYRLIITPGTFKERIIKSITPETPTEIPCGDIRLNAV

Chain of histamine H1 receptors (P35367 whole entry): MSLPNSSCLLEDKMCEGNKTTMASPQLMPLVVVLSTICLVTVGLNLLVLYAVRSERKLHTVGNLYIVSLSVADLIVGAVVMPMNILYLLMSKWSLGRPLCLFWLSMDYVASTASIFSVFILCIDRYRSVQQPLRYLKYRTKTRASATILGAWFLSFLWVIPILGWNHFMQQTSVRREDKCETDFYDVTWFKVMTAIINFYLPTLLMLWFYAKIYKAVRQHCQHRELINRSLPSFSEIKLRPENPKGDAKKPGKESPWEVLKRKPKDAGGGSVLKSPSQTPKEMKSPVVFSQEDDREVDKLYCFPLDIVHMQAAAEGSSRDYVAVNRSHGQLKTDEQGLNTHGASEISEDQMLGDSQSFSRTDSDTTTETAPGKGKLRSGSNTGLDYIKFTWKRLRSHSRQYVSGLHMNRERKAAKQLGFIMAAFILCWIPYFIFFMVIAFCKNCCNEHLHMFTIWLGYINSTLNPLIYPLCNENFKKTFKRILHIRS
Chain of serotonin 5-HT2A receptors (P28223 whole entry): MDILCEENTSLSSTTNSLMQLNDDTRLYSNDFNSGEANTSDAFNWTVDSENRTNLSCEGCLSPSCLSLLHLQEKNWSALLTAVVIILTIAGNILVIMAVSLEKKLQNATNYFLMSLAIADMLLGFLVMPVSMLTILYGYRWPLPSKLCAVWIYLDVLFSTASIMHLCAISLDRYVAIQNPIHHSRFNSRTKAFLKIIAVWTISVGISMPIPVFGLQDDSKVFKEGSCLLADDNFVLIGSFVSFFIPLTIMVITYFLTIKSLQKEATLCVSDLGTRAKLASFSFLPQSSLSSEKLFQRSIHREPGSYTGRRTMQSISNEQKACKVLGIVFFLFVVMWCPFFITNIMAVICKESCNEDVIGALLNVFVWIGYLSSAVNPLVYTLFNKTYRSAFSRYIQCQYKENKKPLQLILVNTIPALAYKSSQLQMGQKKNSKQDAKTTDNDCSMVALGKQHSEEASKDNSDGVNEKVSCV

| Compound | hygroscopic property [1] | affinity for cholinergic muscarinic receptors [2] | affinity for histamine H1 receptors (histamine H1 receptors) | affinity for α1-adrenaline agonist receptors [3] | affinity for serotonin 5-HT2C receptors [4] | affinity for serotonin 5-HT1A receptors [5] | affinity for serotonin 5-HT2A receptors [6] | affinity for serotonin reuptake sites (serotonin reuptake sites) |
| --- | --- | --- | --- | --- | --- | --- | --- | --- |
| O=C1CCc2ccc(OCCCCN3CCN(c4cccc(Cl)c4Cl)CC3)cc2N1 [anhydrous aripiprazole crystal form I, Aripiprazole] | significant hygroscopic property | – | – | – | – | – | – | – |
| O=C1CCc2ccc(OCCCCN3CCN(c4cccc(Cl)c4Cl)CC3)cc2N1 [Aripiprazole] | – | no detectable affinity | mild affinity | mild affinity | mild affinity | potent affinity | potent affinity | mild affinity |
